Laboratory results as given in publication PMC3959874 (European journal of dermatology : EJD, 2013).
Read-outs that look alike come from different tables or passages of the source.

Experiments:
CYP450, 3A4 = CYP450, 3A4 (Homo sapiens, UniProt P08684); experiment: Cytochrome P450 enzyme assay; assay type: in vitro ADME; settings: 10 μM; 37 °C, 30 min
Adenosine A1 = Adenosine A1 (Homo sapiens, UniProt P30542); experiment: Radioligand binding assay; settings: 10 μM; 25 °C, 90 min
Adenosine A3 = Adenosine A3 (Homo sapiens, UniProt P0DMS8); experiment: Radioligand binding assay; settings: 10 μM; 25 °C, 60 min
Adenosine A3, sequence (P0DMS8 whole entry): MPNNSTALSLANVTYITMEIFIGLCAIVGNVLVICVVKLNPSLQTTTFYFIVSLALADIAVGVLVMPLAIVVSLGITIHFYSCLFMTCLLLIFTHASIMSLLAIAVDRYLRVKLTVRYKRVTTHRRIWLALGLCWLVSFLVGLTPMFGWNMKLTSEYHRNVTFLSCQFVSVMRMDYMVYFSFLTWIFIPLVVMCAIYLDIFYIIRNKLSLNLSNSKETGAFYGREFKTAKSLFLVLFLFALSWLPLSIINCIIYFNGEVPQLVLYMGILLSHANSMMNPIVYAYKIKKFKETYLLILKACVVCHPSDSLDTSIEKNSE

Adrenergic a1D = Adrenergic a1D (Homo sapiens, UniProt P25100); experiment: Radioligand binding assay; settings: 10 μM; 25 °C, 60 min
Adrenergic β1 = Adrenergic β1 (Homo sapiens, UniProt P08588); experiment: Radioligand binding assay; settings: 10 μM; 25 °C, 120 min
Adrenergic β1, sequence (P08588 whole entry): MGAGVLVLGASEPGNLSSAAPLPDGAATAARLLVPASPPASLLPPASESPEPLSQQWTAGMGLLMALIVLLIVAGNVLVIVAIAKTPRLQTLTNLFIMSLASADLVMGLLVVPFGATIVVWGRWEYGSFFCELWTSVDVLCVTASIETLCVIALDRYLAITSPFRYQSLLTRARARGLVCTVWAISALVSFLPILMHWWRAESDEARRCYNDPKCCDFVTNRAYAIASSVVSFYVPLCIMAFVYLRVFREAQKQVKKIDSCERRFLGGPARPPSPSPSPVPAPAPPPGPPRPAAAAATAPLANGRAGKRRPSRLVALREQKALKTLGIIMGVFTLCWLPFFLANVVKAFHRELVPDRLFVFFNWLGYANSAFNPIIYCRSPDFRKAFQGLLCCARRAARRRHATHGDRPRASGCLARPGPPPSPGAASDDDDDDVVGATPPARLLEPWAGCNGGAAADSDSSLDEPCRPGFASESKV

Adrenergic β2 = Adrenergic β2 (Homo sapiens, UniProt P07550); experiment: Radioligand binding assay; settings: 10 μM; 25 °C, 60 min
[1] = system: Calcium Channel L-Type, Dihydropyridine; experiment: Radioligand binding assay; parameters: species or system rat; settings: 10 μM; 25 °C, 90 min
Calcium Channel N-Type = Calcium Channel N-Type (Rattus norvegicus, UniProt Q02294); experiment: Radioligand binding assay; settings: 10 μM; 4 °C, 30 min
Dopamine D1 = Dopamine D1 (Homo sapiens, UniProt P21728); experiment: Radioligand binding assay; settings: 10 μM; 37 °C, 120 min
Dopamine D1, sequence (P21728 whole entry): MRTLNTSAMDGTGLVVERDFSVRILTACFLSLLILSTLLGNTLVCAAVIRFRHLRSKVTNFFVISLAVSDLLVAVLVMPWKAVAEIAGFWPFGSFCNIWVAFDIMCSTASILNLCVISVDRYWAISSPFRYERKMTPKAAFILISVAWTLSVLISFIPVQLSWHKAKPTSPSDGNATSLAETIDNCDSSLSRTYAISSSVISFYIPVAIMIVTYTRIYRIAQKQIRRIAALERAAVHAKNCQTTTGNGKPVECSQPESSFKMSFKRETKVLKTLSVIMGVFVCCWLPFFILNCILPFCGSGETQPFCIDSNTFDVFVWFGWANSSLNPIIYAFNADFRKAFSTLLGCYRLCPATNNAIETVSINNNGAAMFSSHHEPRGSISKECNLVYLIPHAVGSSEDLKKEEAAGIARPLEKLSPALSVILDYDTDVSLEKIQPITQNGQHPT

Dopamine D24 = Dopamine D24 (Homo sapiens, UniProt P14416); experiment: Radioligand binding assay; settings: 10 μM; 37 °C, 120 min
Dopamine D24, sequence (P14416 whole entry): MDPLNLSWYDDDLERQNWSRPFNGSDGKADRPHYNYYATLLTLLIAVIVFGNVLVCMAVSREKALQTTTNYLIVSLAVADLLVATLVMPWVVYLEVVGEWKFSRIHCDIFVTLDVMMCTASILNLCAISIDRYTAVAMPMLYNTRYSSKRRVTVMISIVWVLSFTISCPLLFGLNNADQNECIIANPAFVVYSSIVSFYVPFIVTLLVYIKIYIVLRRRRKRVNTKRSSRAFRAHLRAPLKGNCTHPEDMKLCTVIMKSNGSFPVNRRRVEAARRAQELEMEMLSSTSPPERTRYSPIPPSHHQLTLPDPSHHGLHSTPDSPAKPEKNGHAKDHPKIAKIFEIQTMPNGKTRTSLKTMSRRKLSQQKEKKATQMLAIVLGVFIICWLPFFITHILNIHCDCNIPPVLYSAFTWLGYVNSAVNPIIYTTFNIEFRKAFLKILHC

Dopamine D3 = Dopamine D3 (Homo sapiens, UniProt P35462); experiment: Radioligand binding assay; settings: 10 μM; 37 °C, 120 min
Dopamine D3, sequence (P35462 whole entry): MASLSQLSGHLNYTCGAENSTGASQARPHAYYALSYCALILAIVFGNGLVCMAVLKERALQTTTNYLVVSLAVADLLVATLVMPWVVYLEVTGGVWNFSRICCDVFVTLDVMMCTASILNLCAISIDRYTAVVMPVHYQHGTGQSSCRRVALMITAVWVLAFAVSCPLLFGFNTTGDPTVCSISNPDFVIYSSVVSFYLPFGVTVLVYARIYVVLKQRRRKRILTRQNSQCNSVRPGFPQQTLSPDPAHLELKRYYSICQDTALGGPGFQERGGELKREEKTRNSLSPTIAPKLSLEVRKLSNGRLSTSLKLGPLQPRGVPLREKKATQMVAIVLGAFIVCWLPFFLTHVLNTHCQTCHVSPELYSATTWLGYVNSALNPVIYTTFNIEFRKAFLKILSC

Dopamine D4.2 = Dopamine D4.2 (Homo sapiens, UniProt P21917, DEL265-296); experiment: Radioligand binding assay; settings: 10 μM; 25 °C, 120 min
Glutamate, Kainate = experiment: Radioligand binding assay; parameters: species or system rat; settings: 10 μM; 4 °C, 60 min
Glutamate, NMDA, Agonism = experiment: Radioligand binding assay; parameters: species or system rat; settings: 10 μM; 4 °C, 20 min
Interleukin IL-1 = Interleukin IL-1 (Mus musculus, UniProt P13504); experiment: Radioligand binding assay; settings: 10 μM; 37 °C, 120 min
Interleukin IL-1, sequence (P13504 20-576): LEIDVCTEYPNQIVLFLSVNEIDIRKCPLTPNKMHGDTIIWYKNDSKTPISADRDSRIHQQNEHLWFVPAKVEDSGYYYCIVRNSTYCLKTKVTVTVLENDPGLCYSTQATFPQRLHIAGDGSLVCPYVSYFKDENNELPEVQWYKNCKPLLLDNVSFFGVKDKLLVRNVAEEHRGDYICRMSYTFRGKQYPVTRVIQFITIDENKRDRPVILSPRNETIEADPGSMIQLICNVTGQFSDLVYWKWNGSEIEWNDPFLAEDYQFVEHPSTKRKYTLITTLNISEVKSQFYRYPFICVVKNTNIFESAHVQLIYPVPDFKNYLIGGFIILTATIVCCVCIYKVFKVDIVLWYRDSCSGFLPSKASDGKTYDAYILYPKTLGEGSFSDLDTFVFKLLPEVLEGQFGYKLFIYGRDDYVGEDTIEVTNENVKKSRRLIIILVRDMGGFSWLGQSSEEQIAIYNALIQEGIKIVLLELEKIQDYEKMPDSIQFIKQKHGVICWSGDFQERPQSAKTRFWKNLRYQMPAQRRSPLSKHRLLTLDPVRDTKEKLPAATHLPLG

[2] = biological target: Leukotriene, Cysteinyl CysLT 1 (Homo sapiens, UniProt Q9Y271); experiment: Radioligand binding assay; settings: 10 μM; 25 °C, 30 min
Melatonin MT1 = Melatonin MT1 (Homo sapiens, UniProt P48039); experiment: Radioligand binding assay; settings: 10 μM; 25 °C, 180 min
Melatonin MT1, sequence (P48039 whole entry): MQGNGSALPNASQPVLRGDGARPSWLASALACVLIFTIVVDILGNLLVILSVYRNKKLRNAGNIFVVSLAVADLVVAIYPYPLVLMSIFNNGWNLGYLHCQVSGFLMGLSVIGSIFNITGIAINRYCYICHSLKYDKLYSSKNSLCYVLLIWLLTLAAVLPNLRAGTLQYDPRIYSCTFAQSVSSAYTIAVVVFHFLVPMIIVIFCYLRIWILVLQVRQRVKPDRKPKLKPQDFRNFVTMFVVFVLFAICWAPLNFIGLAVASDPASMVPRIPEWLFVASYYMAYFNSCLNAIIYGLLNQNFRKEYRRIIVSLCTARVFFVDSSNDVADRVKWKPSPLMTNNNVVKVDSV

Muscarinic M2 = Muscarinic M2 (Homo sapiens, UniProt P08172); experiment: Radioligand binding assay; settings: 10 μM; 25 °C, 120 min
Muscarinic M2, sequence (P08172 whole entry): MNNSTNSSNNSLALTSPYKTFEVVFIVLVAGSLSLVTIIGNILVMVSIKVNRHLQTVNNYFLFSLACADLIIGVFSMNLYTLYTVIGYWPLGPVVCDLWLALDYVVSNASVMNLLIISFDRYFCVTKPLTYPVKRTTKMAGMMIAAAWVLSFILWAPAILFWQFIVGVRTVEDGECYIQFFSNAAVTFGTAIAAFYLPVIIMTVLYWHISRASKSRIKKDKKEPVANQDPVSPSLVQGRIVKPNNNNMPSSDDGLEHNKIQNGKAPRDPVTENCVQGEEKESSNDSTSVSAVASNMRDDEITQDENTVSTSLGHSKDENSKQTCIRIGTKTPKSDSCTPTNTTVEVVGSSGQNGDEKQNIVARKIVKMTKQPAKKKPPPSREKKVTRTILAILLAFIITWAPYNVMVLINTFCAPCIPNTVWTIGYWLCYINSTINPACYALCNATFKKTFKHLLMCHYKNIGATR

Nicotinic Acetylcholine = experiment: Radioligand binding assay; parameters: species or system human; settings: 10 μM; 25 °C, 60 min
Opiate K (OP2, KOP) = Opiate K (OP2, KOP) (Homo sapiens, UniProt P41145); experiment: Radioligand binding assay; settings: 10 μM; 25 °C, 60 min
Prostanoid EP4 = Prostanoid EP4 (Homo sapiens, UniProt P35408); experiment: Radioligand binding assay; settings: 10 μM; 25 °C, 120 min
Rolipram = experiment: Radioligand binding assay; parameters: species or system rat; settings: 10 μM; 4 °C, 60 min
[3] = biological target: Serotonin (5-Hydroxytryptam ine) 5-HT1A (Homo sapiens, UniProt P08908); experiment: Radioligand binding assay; settings: 10 μM; 25 °C, 60 min
Serotonin (5-Hydroxytryptam ine) 5-HT1A, sequence (P08908 whole entry): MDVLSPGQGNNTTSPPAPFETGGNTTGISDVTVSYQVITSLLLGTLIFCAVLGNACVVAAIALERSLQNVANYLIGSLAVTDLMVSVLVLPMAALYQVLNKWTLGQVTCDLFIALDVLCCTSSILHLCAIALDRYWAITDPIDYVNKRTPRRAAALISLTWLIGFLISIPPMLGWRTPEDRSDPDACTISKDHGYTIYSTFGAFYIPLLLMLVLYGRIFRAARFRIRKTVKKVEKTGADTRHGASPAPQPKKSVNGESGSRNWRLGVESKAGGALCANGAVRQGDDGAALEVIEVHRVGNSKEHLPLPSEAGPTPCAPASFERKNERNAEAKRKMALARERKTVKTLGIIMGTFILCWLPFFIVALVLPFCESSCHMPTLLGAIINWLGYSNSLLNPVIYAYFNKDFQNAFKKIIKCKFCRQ

[4] = biological target: Serotonin (5-Hydroxytryptam ine) 5-HT2B (Homo sapiens, UniProt P41595); experiment: Radioligand binding assay; settings: 10 μM; 37 °C, 60 min
Serotonin (5-Hydroxytryptam ine) 5-HT2B, sequence (P41595 whole entry): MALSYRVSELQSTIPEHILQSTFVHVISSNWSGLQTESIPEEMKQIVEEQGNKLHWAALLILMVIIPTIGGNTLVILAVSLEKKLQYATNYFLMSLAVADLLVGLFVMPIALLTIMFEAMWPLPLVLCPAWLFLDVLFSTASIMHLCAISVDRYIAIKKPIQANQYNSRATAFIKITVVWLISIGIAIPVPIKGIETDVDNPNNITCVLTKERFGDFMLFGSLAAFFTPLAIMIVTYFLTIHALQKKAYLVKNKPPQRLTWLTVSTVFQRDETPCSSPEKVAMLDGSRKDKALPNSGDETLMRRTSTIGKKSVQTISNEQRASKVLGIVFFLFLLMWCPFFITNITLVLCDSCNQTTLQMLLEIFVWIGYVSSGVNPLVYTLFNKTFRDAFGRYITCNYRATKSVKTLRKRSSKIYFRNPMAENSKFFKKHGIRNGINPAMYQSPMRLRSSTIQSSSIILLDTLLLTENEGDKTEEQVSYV

[5] = biological target: Serotonin (5-Hydroxytryptam ine) 5-HT3 (Homo sapiens, UniProt P46098); experiment: Radioligand binding assay; settings: 10 μM; 37 °C, 60 min
Serotonin (5-Hydroxytryptam ine) 5-HT3, sequence (P46098 24-478): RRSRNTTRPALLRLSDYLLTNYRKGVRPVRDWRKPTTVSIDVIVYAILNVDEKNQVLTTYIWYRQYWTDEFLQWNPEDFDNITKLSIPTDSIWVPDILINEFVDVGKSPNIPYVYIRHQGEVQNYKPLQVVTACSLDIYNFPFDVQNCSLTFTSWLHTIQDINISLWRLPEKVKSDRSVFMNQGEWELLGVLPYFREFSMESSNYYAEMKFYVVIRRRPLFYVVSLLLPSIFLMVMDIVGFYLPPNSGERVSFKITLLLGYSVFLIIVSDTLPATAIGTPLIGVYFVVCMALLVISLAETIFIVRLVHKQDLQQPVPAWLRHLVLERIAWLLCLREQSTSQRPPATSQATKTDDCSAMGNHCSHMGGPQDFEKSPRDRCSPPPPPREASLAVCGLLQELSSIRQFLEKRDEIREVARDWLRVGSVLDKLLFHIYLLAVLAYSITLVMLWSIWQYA

[6] = system: murine macrophage cell line RAW 264.7; experiment: Cytokine induction; assay type: cell-based; settings: RAW 264.7 cells, graded doses overnight, ELISA (figure 1A)
[7] = system: primary bone marrow derived dendritic cells (BMDC); experiment: Cytokine induction; assay type: cell-based, mouse; settings: graded doses overnight, ELISA (figures 1B, C)
[8] = assay type: in vivo, mice; settings: for Body weight change after a single intravenous injection of the MTD: 150 mg/kg TMX-202 or 15 mg/kg IMQ i.v. (figure 4)
human PBMC = experiment: IFN-γ secretion by stimulated PBMC; assay type: cell-based

CCCCCCCCCCCC(=O)OC[C@@H](COP(=O)(O)OCCNC(=O)c1ccc(Cn2c(=O)[nH]c3c(N)nc(OCCOC)nc32)cc1)OC(=O)CCCCCCCCCCC [TMX-202]
Percent inhibition of enzyme activity (CYP450, 3A4): −1%
Percent inhibition of specific radioligand binding (Adenosine A1): 10%
Percent inhibition of specific radioligand binding (Adenosine A3): 6%
Percent inhibition of specific radioligand binding (Adrenergic a1D): 6%
Percent inhibition of specific radioligand binding (Adrenergic β1): 18%
Percent inhibition of specific radioligand binding (Adrenergic β2): 3%
Percent inhibition of specific radioligand binding [1]: 10%
Percent inhibition of specific radioligand binding (Calcium Channel N-Type): −12%
Percent inhibition of specific radioligand binding (Dopamine D1): 15%
Percent inhibition of specific radioligand binding (Dopamine D24): 25%
Percent inhibition of specific radioligand binding (Dopamine D3): 15%
Percent inhibition of specific radioligand binding (Dopamine D4.2): 14%
Percent inhibition of specific radioligand binding (Glutamate, Kainate): 1%
Percent inhibition of specific radioligand binding (Glutamate, NMDA, Agonism): 10%
Percent inhibition of specific radioligand binding (Interleukin IL-1): 5%
Percent inhibition of specific radioligand binding [2]: 10%
Percent inhibition of specific radioligand binding (Melatonin MT1): 3%
Percent inhibition of specific radioligand binding (Muscarinic M2): 0%
Percent inhibition of specific radioligand binding (Nicotinic Acetylcholine): 9%
Percent inhibition of specific radioligand binding (Opiate K (OP2, KOP)): −9%
Percent inhibition of specific radioligand binding (Prostanoid EP4): 7%
Percent inhibition of specific radioligand binding (Rolipram): 21%
Percent inhibition of specific radioligand binding [3]: −7%
Percent inhibition of specific radioligand binding [4]: 1%
Percent inhibition of specific radioligand binding [5]: 3%
Potency of mTNFα induction compared with IMQ [6]: more potent cytokine inducer
Potency of mIL-6 and mIL-1β induction compared with IMQ [7]: more potent cytokine inducer
MTD (molar) ([8]; C57BL/6 mice, intravenous administration): approximately 163 μmoles/kg
Body weight change after a single intravenous injection of the MTD ([8]; Tlr7−/− or Myd88−/− mice): no significant body weight loss
Body weight change after a single intravenous injection of the MTD ([8]; WT mice): significant reduction in body weight
IFN-γ secretion compared with vehicle treated controls (human PBMC; PBMC from five independent donors (figure 6C)): significantly higher than vehicle treated controls
Average IFN-γ levels in the TMX-202+CM (human PBMC; human PBMC 10^6/mL, 1 μM TMX-202, 24 hrs, three donors): 204 ± 113 pg/mL
